The text below walks through data of US20140349314A1, “METHODS AND COMPOSITIONS FOR DETECTING AND TREATING INFLAMMATORY DISEASE” (Beth Israel Deaconess Medical Center, Inc., priority 2010, published 2014).

Where a SMILES comes first, the peptide text is derived from it. The star is where a group is joined. Cbz = O=C(OCc1ccccc1)*

Data set [1] relates to MP-stimulated MMP-3 mRNA expression in HSC. As to the kind of experiment: Signaling pathway inhibition: MP-stimulated MMP-3 mRNA expression in HSC. It is filed as cell-based, human. To be noted: for inhibition of MP-stimulated MMP-3 induction: vs untreated S100-MP stimulated controls, SB 5 μg/mL, MG 15 μg/mL. The method, then:
In order to define major signaling pathways that lead to MMP-induction by S100-MP, we used specific inhibitors of several kinases. MP-stimulated MMP-3 mRNA expression served as fibrolytic read-out.
Pathway inhibition experiments were performed in 24 hour serum-starved HSC. […] The proteasome inhibitor MG132 (Rockland Inc., USA) was used to block NFκB nuclear translocation and activity.

In data set [2] the test system is TGFβ1 (5 ng/mL)-activated HSC. As to the kind of experiment: Fibrosis-related transcript levels in TGFβ1-activated HSC incubated with S100-MP. The data set is classed as cell-based, human. To be noted: 5 ng/mL TGFβ1. The method, then: FIG. 9 is a series of graphs showing mRNA transcript levels of the indicated gene in TGFβ1 (5 ng/mL)-activated HSC when incubated with the indicated amount of S100-MP for 24 hours. All experiments were performed at least twice with n=3-4 per group. Results (means±SD) are expressed as arbitrary units relative to beta2-microglobulin mRNA; *p<0.05 vs. medium control.
Human HSC were exposed to 5 ng/mL TGFβ1, which elicits a strong fibrogenic response. […] Thus TGFβ1 enhanced HSC procollagen α1(I) expression 2.7-fold, which after MP addition was reduced by almost 40%, and MP increased the expression of MMP-3 and MMP-13 almost 2.5- and 2.1-fold, respectively.
HSC (200×10^3/well) were seeded into six-well cell culture plates and serum-starved as above. HSC were then incubated with 1×10^3 or 50×10^3 S10-MP or S100-MP for 24 hours, followed by total RNA extraction from cells using TRIzol (Invitrogen, Carlsbad, Calif.). One μg of RNA was reverse-transcribed using random primers and Superscript RNase H-reverse transcriptase (Invitrogen). […] Relative transcript levels were quantified by real-time RT-PCR on a LightCycler 1.5 instrument (Roche, Mannheim, Germany) using the TaqMan methodology as described previously (52). […] Experiments were performed in triplicates and values represent means±SD, being expressed as arbitrary units relative to the housekeeping gene beta2-microglobulin.

Data set [3] concerns CD54 (ICAM-1) on HSC. Put plainly: ICAM-1 (CD54) upregulation on HSC by TNFα (flow cytometry). It is filed as cell-based, human. The protocol: TNFα (PEPROTECH®, Rocky Hill, N.J., USA) was added to HSC cultures, and ICAM-1 expression assessed after 2, 4 and 24 hrs by flow cytometric analysis using anti-ICAM-1-FITC (eBioscience™, San Diego, Calif., USA) on a LSR2 FACS analyzer as described above.
(In general: In flow cytometry, cells or beads pass a laser one at a time.)

The subject of data set [4] is HSC. Put plainly: MMP transcript levels in HSC after S100-MP with or without TNFα. The data set is classed as cell-based, human. The protocol: FIG. 13C is a graph showing mRNA transcript levels of the indicated MMP gene in HSC after addition of S100-MP with or without TNFα (10 ng/mL) for 24 h (*p<0.05, **p=0.04, ***p=0.001).
It remained to be shown what cell membrane molecule(s) or receptor(s) mediate(s) attachment and uptake of S100-MP by HSC. […] Assuming that ICAM-1 on the recipient HSC is engaged by CD11a/CD18 on the S100-MP, any treatment of HSC that increases CD54 should enhance MP uptake and subsequent fibrolytic activation of HSC. We therefore incubated HSC with 10 ng/mL TNF-α, a strong inducer of CD54, which induced a robust (>10-fold) upregulation of CD54 after 24 hrs (FIG. 13B). This led to a further significant MP-induced increase (by 40%) of MMP-3 mRNA expression in the induced HSC as compared to untreated HSC (FIG. 13C). […] For MMP-3 the effect of combined TNF-α and MP treatment was overadditive as compared to the added effects of TNF-α or S100-MP alone (FIG. 13C).

The subject of data set [5] is HSC. As to the kind of experiment: Apoptosis assay (Annexin V / 7-AAD FACS) in HSC. It is filed as cell-based, human. The protocol:
It was reported earlier that MP derived from macrophages could trigger apoptosis in recipient cells.
24 hrs serum-starved HSC were incubated with S100-MP for 24 hrs. Apoptosis and necrosis induction by S100-MP were assessed by FACS analysis for Annexin V and 7-aminoactinomycin D staining (both from eBioscience™, San Diego, Calif., USA) on a LSR2 FACS analyzer with CELLQuest software (Becton Dickinson, San Jose, Calif.).

For data set [6], the system named is human LX-2 hepatic stellate cells (HSC). Put plainly: Fibrosis-related transcript levels by quantitative RT-PCR in LX-2 HSC incubated with T cell-derived MP. It is filed as cell-based. To be noted: 24 hours. The protocol: Effect of S100 T Cell-MP on Fibrosis-Related Gene Expression by HSC Fibrosis related transcripts were measured from 200×10^3 serum-starved human LX-2 HSC 24 hours after addition of 1×10^3 or 50×10^3 S100-MP from Jurkat T cells using quantitative RT-PCR. S10-MP, plain medium, and ST alone served as controls. MP were obtained from PHA-activated and/or apoptotic (ST-treated) Jurkat T cells. After T cell apoptosis induction, significant changes in fibrosis-related transcripts were found with 50×10^3 S100-MP, while equivalent amounts of S10-MP had no effect (FIG. 6). […] Similar results were obtained when S100-MP were incubated with freshly isolated primary rat HSC. Here the human S100-MP induced MMP-3 even 9-fold (FIG. 7).
For induction of apoptosis T cells were cultured in RPMI and treated with 4 μM/mL Staurosporine (ST, Cell Signaling Technology®, Danvers, Mass.) for 4 hours. […]
HSC (200×10^3/well) were seeded into six-well cell culture plates and serum-starved as above. […] Relative transcript levels were quantified by real-time RT-PCR on a LightCycler 1.5 instrument (Roche, Mannheim, Germany) using the TaqMan methodology as described previously (52). […] Experiments were performed in triplicates and values represent means±SD, being expressed as arbitrary units relative to the housekeeping gene beta2-microglobulin.

As for `CC(C)C[C@@H](C=O)NC(=O)[C@H](CC(C)C)NC(=O)[C@H](CC(C)C)NC(=O)OCc1ccccc1` [MG132] (Cbz-Leu-Leu-Leu-aldehyde), the “inhibition of MP-stimulated MMP-3 induction” value in data set [1] is given as 50%.

For the compound “TGFβ1: profibrogenic cytokine used to activate HSC”, the “enhancement of HSC procollagen α1(I) expression” value in data set [2] turned out to be 2.7 fold.

For `C[S+]([O-])c1ccc(-c2nc(-c3ccncc3)c(-c3ccc(F)cc3)[nH]2)cc1` (stereo not drawn) [SB203580], the “inhibition of MP-stimulated MMP-3 induction” value in data set [1] is listed as 50%.

Turning to `N#CC(=C(/N)Sc1ccccc1N)/C(C#N)=C(\N)Sc1ccccc1N` [U0126], the “effect on MP-stimulated MMP-3 mRNA, in words” value in data set [1] is on record as “Complete abrogation”.

In the case of TNF-α, the “upregulation of CD54 on HSC” value in data set [3] (10 ng/mL TNF-α, after 24 hrs) is more than 10 fold. Besides, the “upregulation of CD54 on HSC” value in data set [3] (TNFα 10 ng/mL for 0, 4, and 24 hours) was found to be 40%. In addition, the “further MP-induced increase of MMP-3 mRNA in TNF-α-induced HSC as compared to untreated HSC” value in data set [4] (TNF-α 10 ng/mL plus S100-MP, 24 h) is on record as 40%. In data set [4] (TNF-α alone), the “effect of TNF-α alone on HSC MMP-3 mRNA” value is “not capable to enhance”; the “effect of TNF-α alone on HSC MMP-9 and MMP-13 expression” value is given as “modestly induced”. The “effect of combined TNF-α and MP treatment on MMP-3 compared to added single effects” value in data set [4] (TNF-α plus S100-MP) is given as “overadditive”.

On to `CN[C@@H]1C[C@H]2O[C@@](C)([C@@H]1OC)n1c3ccccc3c3c4c(c5c6ccccc6n2c5c31)C(=O)NC4` [ST, staurosporine], for which the “apoptosis or necrosis induction in HSC, in words” value in data set [5] (24 hours of incubation, ST 0.04 μM/mL) is on record as “induced apoptosis”. In addition, in data set [5] (24 hours, ST alone), the “late apoptosis of HSC” value is not above 10% and the “necrosis of HSC” value is recorded as “up to 14%”. For the same compound, the “higher percentage of late apoptotic HSC compared to S100-MP” value in data set [5] (ST 0.04 μM/mL, 7-AAD/Annexin FACS) was 7 fold. In data set [6], the “effect on fibrosis-related gene expression (MMPs, TIMP-1, procollagen α1(I)) in HSC, in words” value is given as “induced only MMP-9”.
